How the values were obtained:
[1] = Inhibitory activity against Gamma-aminobutyric acid A (GABA-A) receptor; parameters: species or system Rattus norvegicus
Cavia porcellus = organism: Cavia porcellus; experiment: In vitro inhibition against electrical field stimulated neuronal cholinergic contractions of guinea pig trachea; assay type: functional

Molecule `NCC(CS(=O)O)c1ccc(Cl)cc1` (racemic) has an IC50 [1] greater than 100 µM and an IC30 (Cavia porcellus; Cavia porcellus, Trachea, read-out: IC30) of 22 µM.
With `NCC(CS(=O)O)c1ccc(Cl)cc1` (single isomer, unassigned; (-)) the IC30 (Cavia porcellus) was 13.9 µM.
